Reference: patent publication US20050209451A1, “Crystalline form of cefdinir” (priority 2002, published 2005)

Key:
[1] = accelerated stability tests in comparison with crystal A; assay type: physicochemical
Source text: Cefdinir in the new crystalline form was subjected to accelerated stability tests in comparison with crystal A claimed in U.S. Pat. No. 4,935,507.

[2] = dissolution tests in 0.07 N HCl; assay type: physicochemical; details: after the first hour, compared with crystal A

stability ([1]; compared with reference crystal A of U.S. Pat. No. 4,935,507, listed as product obtained in this manner): high stability | solubility on prolonged dissolution treatment (final dissolved cefdinir value) ([2]; listed as cefdinir in the new crystalline form): more soluble than crystal A | solubility on prolonged dissolution treatment (final dissolved cefdinir value) ([2]; listed as product obtained in this manner): higher than that possible with crystal A
Structure (SMILES): C=CC1=C(C(=O)O)N2C(=O)[C@@H](NC(=O)/C(=N\O)c3csc(N)n3)[C@H]2SC1 [new crystal, cefdinir]
stability ([1]; compared with reference crystal A of U.S. Pat. No. 4,935,507): at least equal to that of the reference crystal A
